# Data published in patent US9611221B2, “Histone demethylase inhibitors” (CELGENE QUANTICEL RESEARCH, INC., priority 2012, dated 2017).
# What was measured:
# Type in all cases: biochemical
# [1] = molecular target: Jarid1B (Homo sapiens (Human), UniProt Q9UGL1); assay: Jarid1B in vitro enzyme inhibition assay (TR-FRET); details: 0.8 nM Jarid1B, 300 nM H3K4me3-biotin peptide, 2 μM alpha-ketoglutaric acid
# Text: (§1) This assay determines the ability of a test compound to inhibit Jarid1A, Jarid1B, and JMJD2C demethylase activity. Baculovirus expressed Jarid1A (GenBank Accession #NM_001042603, AA1-1090) was purchased from BPS Bioscience (Cat#50110). Baculovirus expressed Jarid1B (GenBank Accession #NM_006618, AA 2-751) was purchased from BPS Bioscience (Cat #50121) or custom made by MolecularThroughput. Baculovirus expressed JMJD2C (GenBank Accession #BC143571, AA 2-372) was purchased from BPS Bioscience (Cat#50105).
# (§2) The ability of test compounds to inhibit the activity of Jarid1B was determined in 384-well plate format under the following reaction conditions: 0.8 nM Jarid1B, 300 nM H3K4me3-biotin labeled peptide (Anaspec cat #64357), 2 μM alpha-ketoglutaric acid in assay buffer of 50 mM HEPES, pH7.3, 0.005% Brij35, 0.5 mM TCEP, 0.2 mg/ml BSA, 50 μM sodium L-ascorbate, and 2 μM ammonium iron(II) sulfate. Reaction product was determined quantitatively by TR-FRET after the addition of detection reagent Phycolink Streptavidin-allophycocyanin (Prozyme) and Europium-anti-mono- or di-methylated histone H3 lysine 4 (H3K4me1-2) antibody (PerkinElmer) in the presence of 5 mM EDTA in LANCE detection buffer (PerkinElmer) at a final concentration of 25 nM and 1 nM, respectively.
# (§3) The reaction mixture was incubated at room temperature for 30 minutes, and terminated by the addition of 6 μl of 5 mM EDTA in LANCE detection buffer containing 50 nM Phycolink Streptavidin-allophycocyanin and 2 nM Europium-anti-H3K4me1-2 antibody. Plates were read by EnVisionMultilabel Reader in TR-FRET mode (excitation at 320 nm, emission at 615 nm and 665 nm) after 1 hour incubation at room temperature. A ratio was calculated (665/615) for each well and fitted to determine inhibition constant (IC50).
# [2] = molecular target: Jarid1A (Homo sapiens (Human), UniProt P29375); assay: Jarid1A in vitro enzyme inhibition assay (TR-FRET); details: 1 nM Jarid1A, 300 nM H3K4me3-biotin peptide, 2 μM alpha-ketoglutaric acid
# Jarid1A, sequence (P29375 1-1090): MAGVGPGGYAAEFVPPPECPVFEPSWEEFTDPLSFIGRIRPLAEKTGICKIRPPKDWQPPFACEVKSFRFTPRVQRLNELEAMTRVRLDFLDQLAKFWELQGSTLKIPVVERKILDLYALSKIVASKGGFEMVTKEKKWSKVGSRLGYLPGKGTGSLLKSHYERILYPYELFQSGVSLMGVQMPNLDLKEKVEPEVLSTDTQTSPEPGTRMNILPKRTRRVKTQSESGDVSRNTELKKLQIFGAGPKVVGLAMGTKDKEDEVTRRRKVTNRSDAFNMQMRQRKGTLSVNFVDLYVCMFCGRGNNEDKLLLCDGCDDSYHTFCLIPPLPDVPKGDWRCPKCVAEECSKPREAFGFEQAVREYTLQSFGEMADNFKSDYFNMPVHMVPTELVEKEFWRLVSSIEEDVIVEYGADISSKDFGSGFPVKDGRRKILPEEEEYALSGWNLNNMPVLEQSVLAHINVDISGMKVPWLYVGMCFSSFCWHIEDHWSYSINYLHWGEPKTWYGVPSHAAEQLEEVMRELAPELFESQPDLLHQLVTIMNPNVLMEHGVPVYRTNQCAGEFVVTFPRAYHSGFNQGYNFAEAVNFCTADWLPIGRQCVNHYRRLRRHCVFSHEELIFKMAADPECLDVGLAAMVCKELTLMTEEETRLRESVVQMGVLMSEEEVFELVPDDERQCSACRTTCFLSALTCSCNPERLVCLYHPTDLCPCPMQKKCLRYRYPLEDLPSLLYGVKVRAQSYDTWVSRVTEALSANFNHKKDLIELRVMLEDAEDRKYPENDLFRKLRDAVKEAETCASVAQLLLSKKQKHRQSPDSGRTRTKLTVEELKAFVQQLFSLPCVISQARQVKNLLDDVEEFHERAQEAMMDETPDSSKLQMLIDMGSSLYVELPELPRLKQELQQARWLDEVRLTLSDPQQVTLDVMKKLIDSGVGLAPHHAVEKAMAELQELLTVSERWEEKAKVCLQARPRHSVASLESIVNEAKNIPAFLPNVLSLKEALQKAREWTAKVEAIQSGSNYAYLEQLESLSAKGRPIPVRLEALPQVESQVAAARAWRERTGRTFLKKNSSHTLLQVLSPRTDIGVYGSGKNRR
# Text: as §1
# as §2, with “The enzymatic assay of Jarid1A activity is based upon Time Resolved-Fluorescence Resonance Energy Transfer (TR-FRET) detection. The” for “The”, “Jarid1A” for “Jarid1B”, “1” for “0.8”, “Jarid1A,” for “Jarid1B,”
# as §3
# [3] = molecular target: JMJD2C (Homo sapiens (Human), UniProt Q9H3R0); assay: JMJD2C in vitro enzyme inhibition assay (TR-FRET); details: 0.3 nM JMJD2C, 300 nM H3K9me3-biotin peptide, 2 μM alpha-ketoglutaric acid
# JMJD2C, sequence (Q9H3R0 2-372): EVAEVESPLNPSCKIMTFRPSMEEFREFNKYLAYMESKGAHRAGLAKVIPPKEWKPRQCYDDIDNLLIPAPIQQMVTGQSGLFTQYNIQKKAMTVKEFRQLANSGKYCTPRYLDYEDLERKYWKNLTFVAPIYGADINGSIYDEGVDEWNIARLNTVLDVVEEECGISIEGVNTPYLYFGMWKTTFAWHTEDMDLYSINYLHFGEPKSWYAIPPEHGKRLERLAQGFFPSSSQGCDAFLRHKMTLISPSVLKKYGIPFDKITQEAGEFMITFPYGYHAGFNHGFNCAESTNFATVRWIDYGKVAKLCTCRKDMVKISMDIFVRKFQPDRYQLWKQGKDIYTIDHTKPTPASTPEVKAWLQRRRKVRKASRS
# Text: as §1
# The ability of test compounds to inhibit the activity of JMJD2C was determined in 384-well plate format under the following reaction conditions: 0.3 nM JMJD2C, 300 nM H3K9me3-biotin labeled peptide (Anaspec cat #64360), 2 μM alpha-ketoglutaric acid in assay buffer of 50 mM HEPES, pH7.3, 0.005% Brij35, 0.5 mM TCEP, 0.2 mg/ml BSA, 50 μM sodium L-ascorbate, and 2 μM ammonium iron(II) sulfate. Reaction product was determined quantitatively by TR-FRET after the addition of detection reagent Phycolink Streptavidin-allophycocyanin (Prozyme) and Europium-anti-di-methylated histone H3 lysine 9 (H3K9me2) antibody (PerkinElmer) in the presence of 5 mM EDTA in LANCE detection buffer (PerkinElmer) at a final concentration of 50 nM and 1 nM, respectively.
# as §3, with “containing 100” for “containing 50”, “nM Europium-anti-H3K9me2” for “nM Europium-anti-H3K4me1-2”
# Jarid1B, sequence (Q9UGL1 2-751): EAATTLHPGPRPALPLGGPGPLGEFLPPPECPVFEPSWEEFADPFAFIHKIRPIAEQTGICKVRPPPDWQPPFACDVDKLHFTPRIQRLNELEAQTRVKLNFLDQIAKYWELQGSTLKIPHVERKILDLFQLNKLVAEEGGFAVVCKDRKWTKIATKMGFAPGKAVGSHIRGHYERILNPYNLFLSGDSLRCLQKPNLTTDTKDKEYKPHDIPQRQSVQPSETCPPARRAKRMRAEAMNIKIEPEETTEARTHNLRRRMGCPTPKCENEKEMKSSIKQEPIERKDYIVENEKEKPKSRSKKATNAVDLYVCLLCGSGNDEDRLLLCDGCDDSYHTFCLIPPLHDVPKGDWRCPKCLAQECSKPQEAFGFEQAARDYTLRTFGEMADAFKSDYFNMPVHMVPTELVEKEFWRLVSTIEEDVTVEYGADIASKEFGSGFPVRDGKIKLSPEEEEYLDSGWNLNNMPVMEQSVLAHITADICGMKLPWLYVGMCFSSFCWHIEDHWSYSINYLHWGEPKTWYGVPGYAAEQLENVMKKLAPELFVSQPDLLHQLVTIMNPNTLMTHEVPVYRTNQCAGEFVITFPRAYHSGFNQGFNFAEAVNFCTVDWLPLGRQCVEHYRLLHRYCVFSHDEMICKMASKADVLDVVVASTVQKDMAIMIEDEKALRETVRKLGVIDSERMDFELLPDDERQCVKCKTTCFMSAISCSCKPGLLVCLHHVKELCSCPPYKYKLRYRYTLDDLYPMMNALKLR
IC50 [1] [µM],IC50 [2] [µM],IC50 [3] [µM],Structure (SMILES)
≤ 0.1,≤ 0.1,0.1 to 1,"O=C(O)c1ccncc1NCc1ccccc1Oc1ccccc1 [Example 33, 3-[(2-phenoxybenzyl)amino]pyridine-4-carboxylic acid]"
≤ 0.1,≤ 0.1,≤ 0.1,"O=C(O)c1ccncc1NCc1ccc(Br)cc1 [Example 23, 3-[(4-bromobenzyl)amino]pyridine-4-carboxylic acid]"
≤ 0.1,≤ 0.1,0.1 to 1,"O=C(O)c1ccncc1NC[C@H]1CCCc2ccccc21 [Example 47, 3-{[(1S)-1,2,3,4-tetrahydronaphthalen-1-ylmethyl]amino}pyridine-4-carboxylic acid]"
≤ 0.1,≤ 0.1,≤ 0.1,"Cc1ccc(CNc2cnccc2C(=O)O)cc1 [Example 24, 3-[(4-methylbenzyl)amino]pyridine-4-carboxylic acid]"
≤ 0.1,≤ 0.1,≤ 0.1,"O=C(O)c1ccncc1NCc1cccc(C(F)(F)F)c1 [Example 32, 3-{[3-(trifluoromethyl)benzyl]amino}pyridine-4-carboxylic acid]"
≤ 0.1,≤ 0.1,0.1 to 1,"Cc1ccc2c(c1)C(CNc1cnccc1C(=O)O)CCO2 (stereo not drawn) [Example 63, 3-{[(6-methyl-3,4-dihydro-2H-chromen-4-yl)methyl]amino}pyridine-4-carboxylic acid]"
≤ 0.1,≤ 0.1,≤ 0.1,"N#Cc1ccc(CNc2cnccc2C(=O)O)cc1 [Example 5, 3-[(4-cyanobenzyl)amino]pyridine-4-carboxylic acid]"
≤ 0.1,≤ 0.1,0.1 to 1,"Cc1ccc(C2CC2)c(CNc2cnccc2C(=O)O)c1 [Example 34, 3-[(2-cyclopropyl-5-methylbenzyl)amino]pyridine-4-carboxylic acid]"
≤ 0.1,≤ 0.1,0.1 to 1,"O=C(O)c1ccncc1NCc1ccc(C2CC2)cc1 [Example 25, 3-[(4-cyclopropylbenzyl)amino]pyridine-4-carboxylic acid]"
≤ 0.1,≤ 0.1,0.1 to 1,"COc1cc(Cl)ccc1CNc1cnccc1C(=O)O [Example 20, 3-[(4-chloro-2-methoxybenzyl)amino]pyridine-4-carboxylic acid]"
≤ 0.1,≤ 0.1,0.1 to 1,"O=C(O)c1ccncc1NCc1coc2ccccc12 [Example 38, 3-[(1-benzofuran-3-ylmethyl)amino]pyridine-4-carboxylic acid]"
≤ 0.1,≤ 0.1,≤ 0.1,"O=C(O)c1ccncc1NCc1ccc(C(F)(F)F)cc1 [Example 8, 3-{[4-(trifluoromethyl)benzyl]amino}pyridine-4-carboxylic acid]"
≤ 0.1,≤ 0.1,≤ 0.1,"O=C(O)c1ccncc1NCc1cnccc1C1CC1 [Example 31, 3-{[(4-cyclopropylpyridin-3-yl)-methyl]amino}pyridine-4-carboxylic acid]"
≤ 0.1,≤ 0.1,0.1 to 1,"O=C(O)c1ccncc1NCc1ccc(C(F)(F)F)cc1C1CC1 [Example 27, 3-{[2-cyclopropyl-4-(trifluoromethl)benzyl]amino}pyridine-4-carboxylic acid]"
≤ 0.1,≤ 0.1,≤ 0.1,"O=C(O)c1ccncc1NCC1COc2ccccc2O1 (stereo not drawn) [Example 44, 3-[(2,3-dihydro-1,4-benzodioxin-2-ylmethyl)amino]pyridine-4-carboxylic acid]"
≤ 0.1,0.1 to 1,0.1 to 1,"O=C(O)c1ccncc1NCc1cccc(OCC2CC2)c1 [Example 37, 3-{[3-(cyclopropylmethoxy)benzyl]amino}pyridine-4-carboxylic acid]"
≤ 0.1,≤ 0.1,≤ 0.1,"Nc1ccccc1CNc1cnccc1C(=O)O [Example 22, 3-[(2-aminobenzyl)amino]pyridine-4-carboxylic acid]"
≤ 0.1,≤ 0.1,0.1 to 1,"O=C(O)c1ccncc1NCC1CCCc2ccccc21 (stereo not drawn) [Example 46, 3-[(1,2,3,4-tetrahydronaphthalen-1-ylmethyl)amino]pyridine-4-carboxylic acid]"
≤ 0.1,≤ 0.1,≤ 0.1,"O=C(O)c1ccncc1NCc1ccc(Cl)cc1O [Example 21, 3-[(4-chloro-2-hydroxybenzyl)amino]pyridine-4-carboxylic acid]"
≤ 0.1,≤ 0.1,≤ 0.1,"O=C(O)c1ccncc1NCc1ccc(Cl)cc1Cl [Example 18, 3-[(2,4-dichlorobenzyl)amino]pyridine-4-carboxylic acid]"
≤ 0.1,≤ 0.1,≤ 0.1,"O=C(O)c1ccncc1NCc1cc2ccccc2o1 [Example 41, 3-[(1-benzofuran-2-ylmethyl)amino]pyridine-4-carboxylic acid]"
≤ 0.1,≤ 0.1,0.1 to 1,"O=C(O)c1ccncc1NCC1CCCc2ccc(C3CC3)cc21 (stereo not drawn) [Example 53, 3-{[(7-cyclopropyl-1,2,3,4-tetrahydronaphthalen-1-yl)methyl]amino}pyridine-4-carboxylic acid]"
0.1 to 1,≤ 0.1,≤ 0.1,"O=C(O)c1ccnnc1NCc1ccccc1 [Example 1, 3-(benzylamino)pyridazine-4-carboxylic acid]"
≤ 0.1,≤ 0.1,≤ 0.1,"O=C(O)c1ccncc1NCc1ccc(F)cc1 [Example 4, 3-[(4-fluorobenzyl)amino]pyridine-4-carboxylic acid]"
≤ 0.1,≤ 0.1,≤ 0.1,"Cc1cccc(CNc2cnccc2C(=O)O)c1C1CC1 [Example 30, 3-[(2-cyclopropyl-3-methylbenzyl)amino]pyridine-4-carboxylic acid]"
≤ 0.1,≤ 0.1,≤ 0.1,"Cc1ccc(CNc2cnccc2C(=O)O)o1 [Example 40, 3-{[(5-methylfuran-2-yl)methyl]amino}pyridine-4-carboxylic acid]"
0.1 to 1,0.1 to 1,0.1 to 1,"O=C(O)c1ccncc1NC[C@@H]1CCCc2ccccc21 [Example 48, 3-{[(1R)-1,2,3,4-tetrahydronaphthalen-1-ylmethyl]amino}pyridine-4-carboxylic acid]"
≤ 0.1,≤ 0.1,≤ 0.1,"O=C(O)c1ccncc1NCC1CCOc2ccccc21 (stereo not drawn) [Example 58, 3-[(3,4-dihydro-2H-chromen-4-ylmethyl)amino]pyridine-4-carboxylic acid]"

Structure (SMILES),IC50 [1] [µM],IC50 [2] [µM],IC50 [3] [µM]
"CC1(CNc2cnccc2C(=O)O)CCCc2ccccc21 (stereo not drawn) [Example 49, 3-{[(1-methyl-1,2,3,4-tetrahydronaphthalen-1-yl)methyl]amino}pyridine-4-carboxylic acid]",0.1 to 1,0.1 to 1,0.1 to 1
